Results reported in patent publication US11168102B1, “Bicyclic heteroaryl compounds and uses thereof” (Revolution Medicines, Inc., priority 2019, dated 2021).
Where two headings read alike, the source gives them in different places.

Tested on: cellular pERK in PC-9 cells (EGFR Ex19Del)
Test: Potency assay: pERK (AlphaLISA SureFire Ultra p-ERK1/2) in PC-9 cells
Type: cell-based
Conditions: PC-9 cells (EGFR Ex19Del), 1 hour incubation, AlphaLISA SureFire Ultra p-ERK1/2, read-out: SOS1 pERK IC50

Structure (SMILES) | IC50 (Homo sapiens, PC-9, 1 h) | IC50
C[C@@H](Nc1ncnc2c1cc(C1=CCS(=O)(=NC#N)CC1)c(=O)n2C)c1cccc(C(F)F)c1F (single isomer, unassigned) [Example 45] | 29.1 nM | –
C[C@@H](Nc1ncnc2c1cc(C1=CCS(=O)(=NC#N)CC1)c(=O)n2C)c1cccc(C(F)F)c1F (single isomer, unassigned) [Example 46] | – | 43.3 nM
COC1(c2cc3c(N[C@H](C)c4cccc(C(F)F)c4F)ncnc3n(C)c2=O)CCS(=N)(=O)CC1 (single isomer, unassigned) [Example 49] | 75.5 nM | –
COC1(c2cc3c(N[C@H](C)c4cccc(C(F)F)c4F)ncnc3n(C)c2=O)CCS(=N)(=O)CC1 (single isomer, unassigned) [Example 50] | – | 112 nM
CN=S1(=O)CCC(F)(c2cc3c(N[C@H](C)c4cccc(C(F)F)c4F)ncnc3n(C)c2=O)CC1 (single isomer, unassigned) [Example 51] | 41.1 nM | –
CC(=O)N1CCC2(c3cc4c(N[C@H](C)c5cccc(C(F)F)c5F)ncnc4n(C)c3=O)CC2C1 (single isomer, unassigned) [Example 54-1] | – | 53.7 nM
C[C@@H](Nc1ncnc2c1cc(C13CCOCC1C3)c(=O)n2C)c1cccc(C(F)F)c1F (single isomer, unassigned) [Example 54-2] | – | 82.8 nM
C[C@@H](Nc1ncnc2c1cc(C13CCOCC1C3)c(=O)n2C)c1cccc(C(F)F)c1F (single isomer, unassigned) [Example 54-3] | – | 376 nM
COC1(c2cc3c(N[C@H](C)c4cccc(C(F)F)c4F)ncnc3n(C)c2=O)CC(N(C)C(C)=O)C1 (stereo in doubt) [Example 32-40] | 382 nM | –
C[C@@H](Nc1ncnc2c1cc(C1=CCCNC1)c(=O)n2C)c1cccc(C(F)F)c1F [Example 1-4] | 43.1 nM | –
C[C@@H](Nc1ncnc2c1cc(C1=CCCOC1)c(=O)n2C)c1cccc(C(F)F)c1F [Example 1-6] | 180 nM | –
CC(=O)N1CC=C(c2cc3c(N[C@H](C)c4cccc(C(F)F)c4F)ncnc3n(C)c2=O)CC1 [Example 1-16] | 119 nM | –
CC(=O)N1CC=C(c2cc3c(N[C@H](C)c4cccc(C(C)(F)F)c4F)ncnc3n(C)c2=O)CC1 [Example 1-20] | 78.5 nM | –
C[C@@H](Nc1ncnc2c1cc(C1=CCN(C3COC3)CC1)c(=O)n2C)c1cccc(C(F)F)c1F [Example 1-22] | 416 nM | –
CC(=O)N1CC=C(c2cc3c(N[C@H](C)c4cccc(C(F)(F)F)c4F)ncnc3n(C)c2=O)CC1 [Example 1-24] | 106 nM | –
C[C@@H](Nc1ncnc2c1cc(C1=CCN(CC(F)(F)F)CC1)c(=O)n2C)c1cccc(C(F)F)c1F [Example 1-27] | 313 nM | –
C[C@@H](Nc1ncnc2c1cc(C1CCNCC1)c(=O)n2C)c1cccc(C(F)F)c1F [Example 1-28] | 125 nM | –
Cc1nc(N[C@H](C)c2cccc(C(F)F)c2F)c2cc(C3CCNCC3)c(=O)n(C)c2n1 [Example 1-31] | 568 nM | –
C[C@@H](Nc1ncnc2c1cc(C1=CC[P@](C)(=O)CC1)c(=O)n2C)c1cccc(C(F)F)c1F [Example 1-32] | 93.1 nM | –
C[C@@H](Nc1ncnc2c1cc(C1=CC[P@@](C)(=O)CC1)c(=O)n2C)c1cccc(C(F)F)c1F [Example 1-33] | 201 nM | –
C[C@@H](Nc1ncnc2c1cc(N1CCOCC1)c(=O)n2C)c1cccc(C(F)(F)CO)c1 [Example 2, (R)-4-((1-(3-(1,1-difluoro-2-hydroxyethyl)phenyl)ethyl)amino)-8-methyl-6-morpholinopyrido[2,3-d]pyrimidin-7(8H)-one] | 59.8 nM | –
Cc1nc(N[C@H](C)c2cccc(C(F)F)c2F)c2cc(N3CCOCC3)c(=O)n(C)c2n1 [Example 2-1] | 112 nM | –
Cc1nc(N[C@H](C)c2cccc(C(F)(F)CO)c2)c2cc(C3=CCOCC3)c(=O)n(C)c2n1 [Example 3, (R)-4-((1-(3-(1,1-difluoro-2-hydroxyethyl)phenyl)ethyl)amino)-6-(3,6-dihydro-2H-pyran-4-yl)-2,8-dimethylpyrido[2,3-d]pyrimidin-7(8H)-one] | 79.4 nM | –
Cc1nc(N[C@H](C)c2cccc(C(F)(F)CO)c2)c2cc(C3=CCNCC3)c(=O)n(C)c2n1 [Example 4, (R)-4-((1-(3-(1,1-difluoro-2-hydroxyethyl)phenyl)ethyl)amino)-2,8-dimethyl-6-(1,2,3,6-tetrahydropyridin-4-yl)pyrido[2,3-d]pyrimidin-7(8H)-one] | 481 nM | –
C[C@@H](Nc1ncnc2c1cc(C1=CCOCC1)c(=O)n2C)c1cccc(C(F)(F)F)c1 [Example 5, (R)-6-(3,6-dihydro-2H-pyran-4-yl)-8-methyl-4-((1-(3-(trifluoromethyl)phenyl)ethyl)amino)pyrido[2,3-d]pyrimidin-7(8H)-one] | 134 nM | –

Further lines, results first:

IC50 (Homo sapiens, PC-9, 1 h) | IC50 | Structure (SMILES)
– | 301 nM | CC(=O)N1CCC2(c3cc4c(N[C@H](C)c5cccc(C(F)F)c5F)ncnc4n(C)c3=O)CC2C1 (single isomer, unassigned) [Example 54-4]
– | 121 nM | C[C@@H](Nc1ncnc2c1cc(C1(F)CCC3(CC1)CS(=O)(=NC1CC1)C3)c(=O)n2C)c1cccc(C(F)F)c1F (single isomer, unassigned) [Example 56-1]
– | 294 nM | C[C@@H](Nc1ncnc2c1cc(C1(F)CCC3(CC1)CS(=O)(=NC1CC1)C3)c(=O)n2C)c1cccc(C(F)F)c1F (single isomer, unassigned) [Example 56-2]
– | 86.2 nM | C[C@@H](Nc1ncnc2c1cc(C1(F)CCC3(CC1)CS(=O)(=NC1CC1)C3)c(=O)n2C)c1cccc(C(F)F)c1F (single isomer, unassigned) [Example 56-3]
– | 386 nM | C[C@@H](Nc1ncnc2c1cc(C1(C#N)CCC3(CC1)CS(=O)(=NC1CC1)C3)c(=O)n2C)c1cccc(C(F)F)c1F (single isomer, unassigned) [Example 58-1]
– | 56.2 nM | C[C@@H](Nc1ncnc2c1cc(C1(C#N)CCC3(CC1)CS(=O)(=NC1CC1)C3)c(=O)n2C)c1cccc(C(F)F)c1F (single isomer, unassigned) [Example 58-2]
– | 271 nM | C[C@@H](Nc1ncnc2c1cc(C1(C#N)CCS(=O)(=NC3CC3)CC1)c(=O)n2C)c1cccc(C(F)F)c1F (single isomer, unassigned) [Example 58]
– | 26.3 nM | C[C@@H](Nc1ncnc2c1cc(C1CCS(=O)(=NC3CC3)CC1)c(=O)n2C)c1cccc(C(F)F)c1F (single isomer, unassigned) [Example 64-1]
– | 494 nM | C[C@@H](Nc1ncnc2c1cc(C1CCS(=O)(=NC3CC3)CC1)c(=O)n2C)c1cccc(C(F)F)c1F (single isomer, unassigned) [Example 64-2]
– | 58.3 nM | CN=S1(=O)CCC(c2cc3c(N[C@H](C)c4cccc(C(F)F)c4F)ncnc3n(C)c2=O)CC1 (single isomer, unassigned) [Example 64-3]
– | 131 nM | CN=S1(=O)CCC(c2cc3c(N[C@H](C)c4cccc(C(F)F)c4F)ncnc3n(C)c2=O)CC1 (single isomer, unassigned) [Example 64]
– | 201 nM | COC1(c2cc3c(N[C@H](C)c4cccc(C(F)F)c4F)ncnc3n(C)c2=O)CCS(=O)(=NC2CC2)CC1 (single isomer, unassigned) [Example 68]
– | 94 nM | COC1(c2cc3c(N[C@H](C)c4cccc(C(F)F)c4F)ncnc3n(C)c2=O)CCS(=O)(=NC2CC2)CC1 (single isomer, unassigned) [Example 69]
